Several values for one entry are separate records, joined by “and”; a condition that tells them apart may be missing. Equal values may be shown once.
Legend:
[1] = molecular target: CDK9/cyclin T1 (Homo sapiens) (UniProt O60563+P50750); test: Enzymatic radiometric [Km ATP] KinaseProfiler LeadHunter assay, kinase: CDK9/cyclin T1, catalogue number: 14-685KP The assay has been performed by Eurofins Discovery.; assay type: protein-complex assay; conditions: ATP concentration 45.0 uM, Test compound concentration 10.0 uM
[2] = molecular target: Ribosomal protein S6 kinase alpha-1 (Homo sapiens) (UniProt Q15418); test: Enzymatic radiometric [Km ATP] KinaseProfiler LeadHunter assay, kinase: Rsk1, catalogue number: 14-509KP The assay has been performed by Eurofins Discovery.; conditions: ATP concentration 45.0 uM, Test compound concentration 10.0 uM
[3] = molecular target: T1, Interleukin-1 receptor-associated kinase 4 (Homo sapiens) (UniProt Q9NWZ3); test: Enzymatic radiometric [Km ATP] KinaseProfiler LeadHunter assay, kinase: IRAK4, catalogue number: 14-599KP The assay has been performed by Eurofins Discovery.; conditions: ATP concentration 200.0 uM, Test compound concentration 10.0 uM
T1 sequence (whole entry): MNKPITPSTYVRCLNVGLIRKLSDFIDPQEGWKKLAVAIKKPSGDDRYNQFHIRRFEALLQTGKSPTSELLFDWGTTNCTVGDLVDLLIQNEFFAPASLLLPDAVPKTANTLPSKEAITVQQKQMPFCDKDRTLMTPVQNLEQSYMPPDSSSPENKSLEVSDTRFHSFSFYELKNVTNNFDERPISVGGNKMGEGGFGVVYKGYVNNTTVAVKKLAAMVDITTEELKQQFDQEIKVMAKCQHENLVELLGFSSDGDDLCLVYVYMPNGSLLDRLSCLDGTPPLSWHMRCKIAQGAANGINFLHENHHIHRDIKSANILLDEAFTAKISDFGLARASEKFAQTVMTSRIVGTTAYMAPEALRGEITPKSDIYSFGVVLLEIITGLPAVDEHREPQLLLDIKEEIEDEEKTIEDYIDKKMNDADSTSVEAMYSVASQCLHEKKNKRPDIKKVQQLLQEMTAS

[4] = molecular target: T2, Tyrosine-protein kinase receptor TYRO3 (Homo sapiens) (UniProt Q06418); test: Enzymatic radiometric [Km ATP] KinaseProfiler LeadHunter assay, kinase: Rse, catalogue number: 14-535KP The assay has been performed by Eurofins Discovery.; conditions: ATP concentration 45.0 uM, Test compound concentration 10.0 uM
T2 sequence (whole entry): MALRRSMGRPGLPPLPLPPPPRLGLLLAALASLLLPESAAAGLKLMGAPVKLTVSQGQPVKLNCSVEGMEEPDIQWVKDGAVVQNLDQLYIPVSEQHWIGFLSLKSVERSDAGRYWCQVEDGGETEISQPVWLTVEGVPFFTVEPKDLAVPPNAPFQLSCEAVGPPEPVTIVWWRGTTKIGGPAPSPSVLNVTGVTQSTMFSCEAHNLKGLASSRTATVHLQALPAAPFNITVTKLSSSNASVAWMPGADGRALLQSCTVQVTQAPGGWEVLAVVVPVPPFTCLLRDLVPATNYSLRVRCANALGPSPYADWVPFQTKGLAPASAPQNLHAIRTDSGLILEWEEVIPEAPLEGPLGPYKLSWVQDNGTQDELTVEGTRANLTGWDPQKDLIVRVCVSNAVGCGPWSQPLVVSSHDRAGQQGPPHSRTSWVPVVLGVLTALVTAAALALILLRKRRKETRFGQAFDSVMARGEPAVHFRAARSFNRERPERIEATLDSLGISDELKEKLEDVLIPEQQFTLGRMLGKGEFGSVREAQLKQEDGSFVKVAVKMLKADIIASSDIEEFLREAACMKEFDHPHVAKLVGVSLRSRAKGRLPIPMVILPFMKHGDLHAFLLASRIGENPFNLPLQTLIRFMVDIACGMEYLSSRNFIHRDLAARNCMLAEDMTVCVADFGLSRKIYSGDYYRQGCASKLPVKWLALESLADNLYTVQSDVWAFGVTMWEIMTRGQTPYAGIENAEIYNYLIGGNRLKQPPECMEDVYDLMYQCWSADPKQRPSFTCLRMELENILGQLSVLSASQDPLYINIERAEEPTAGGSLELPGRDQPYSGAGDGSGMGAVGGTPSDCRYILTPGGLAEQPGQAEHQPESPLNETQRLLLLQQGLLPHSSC

[5] = molecular target: T3, Serine/threonine-protein kinase 4 (Homo sapiens) (UniProt Q13043); test: Enzymatic radiometric [Km ATP] KinaseProfiler LeadHunter assay, kinase: MST1, catalogue number: 14-624KP The assay has been performed by Eurofins Discovery.; conditions: ATP concentration 90.0 uM, Test compound concentration 10.0 uM
T3 sequence (whole entry): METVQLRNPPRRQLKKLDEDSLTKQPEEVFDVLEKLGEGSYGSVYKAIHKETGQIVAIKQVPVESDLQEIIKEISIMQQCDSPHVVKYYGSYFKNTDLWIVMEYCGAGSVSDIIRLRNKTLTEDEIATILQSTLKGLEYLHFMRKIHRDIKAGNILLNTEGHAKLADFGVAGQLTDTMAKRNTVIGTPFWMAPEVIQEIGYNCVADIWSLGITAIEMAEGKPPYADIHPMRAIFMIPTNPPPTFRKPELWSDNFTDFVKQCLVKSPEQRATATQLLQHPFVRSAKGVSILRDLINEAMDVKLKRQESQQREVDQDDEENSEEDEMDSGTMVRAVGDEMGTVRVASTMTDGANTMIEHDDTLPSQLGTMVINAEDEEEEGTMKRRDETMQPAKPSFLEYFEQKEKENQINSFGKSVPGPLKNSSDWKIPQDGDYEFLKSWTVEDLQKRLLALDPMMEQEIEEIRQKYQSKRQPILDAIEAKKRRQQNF

[6] = molecular target: CDK6/cyclin D3 (Homo sapiens) (UniProt P30281+Q00534); test: Enzymatic radiometric [Km ATP] KinaseProfiler LeadHunter assay, kinase: CDK6/cyclinD3, catalogue number: 14-519KP The assay has been performed by Eurofins Discovery.; assay type: protein-complex assay; conditions: ATP concentration 200.0 uM, Test compound concentration 10.0 uM
[7] = molecular target: Platelet-derived growth factor receptor beta (Homo sapiens) (UniProt P09619); test: Enzymatic radiometric [Km ATP] KinaseProfiler LeadHunter assay, kinase: PDGFR-beta, catalogue number: 14-463KP The assay has been performed by Eurofins Discovery.; conditions: ATP concentration 200.0 uM, Test compound concentration 10.0 uM
[8] = molecular target: Tyrosine-protein kinase ABL1 (Homo sapiens) (UniProt P00519); test: Enzymatic radiometric [Km ATP] KinaseProfiler LeadHunter assay, kinase: Abl, catalogue number: 14-529KP The assay has been performed by Eurofins Discovery.; conditions: ATP concentration 45.0 uM, Test compound concentration 10.0 uM
[9] = molecular target: Calcium/calmodulin-dependent protein kinase type 1 (Homo sapiens) (UniProt Q14012); test: Enzymatic radiometric [Km ATP] KinaseProfiler LeadHunter assay, kinase: CaMKI, catalogue number: 14-663KP The assay has been performed by Eurofins Discovery.; conditions: ATP concentration 200.0 uM, Test compound concentration 10.0 uM
[10] = molecular target: Serine/threonine-protein kinase 10 (Homo sapiens) (UniProt O94804); test: Enzymatic radiometric [Km ATP] KinaseProfiler LeadHunter assay, kinase: LOK, catalogue number: 14-686KP The assay has been performed by Eurofins Discovery.; conditions: ATP concentration 120.0 uM, Test compound concentration 10.0 uM
[11] = molecular target: Casein kinase I isoform gamma-1 (Homo sapiens) (UniProt Q9HCP0); test: Enzymatic radiometric [Km ATP] KinaseProfiler LeadHunter assay, kinase: CK1-gamma1, catalogue number: 14-711KP The assay has been performed by Eurofins Discovery.; conditions: ATP concentration 15.0 uM, Test compound concentration 10.0 uM
Chain of Casein kinase I isoform gamma-1 (Homo sapiens) (Q9HCP0 whole entry, looked up, canonical isoform): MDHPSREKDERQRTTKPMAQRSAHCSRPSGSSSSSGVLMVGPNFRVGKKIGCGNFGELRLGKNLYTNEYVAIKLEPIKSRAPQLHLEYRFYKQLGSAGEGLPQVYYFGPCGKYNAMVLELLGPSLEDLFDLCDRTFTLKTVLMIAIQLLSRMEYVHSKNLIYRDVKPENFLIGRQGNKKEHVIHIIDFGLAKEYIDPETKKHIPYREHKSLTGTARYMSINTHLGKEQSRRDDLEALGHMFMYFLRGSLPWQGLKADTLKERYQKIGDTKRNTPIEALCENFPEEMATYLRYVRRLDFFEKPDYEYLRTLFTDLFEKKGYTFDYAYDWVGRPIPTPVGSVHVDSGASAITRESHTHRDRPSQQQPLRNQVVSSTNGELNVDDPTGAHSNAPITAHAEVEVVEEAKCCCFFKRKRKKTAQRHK

Chain of Calcium/calmodulin-dependent protein kinase type 1 (Homo sapiens) (Q14012 whole entry, looked up): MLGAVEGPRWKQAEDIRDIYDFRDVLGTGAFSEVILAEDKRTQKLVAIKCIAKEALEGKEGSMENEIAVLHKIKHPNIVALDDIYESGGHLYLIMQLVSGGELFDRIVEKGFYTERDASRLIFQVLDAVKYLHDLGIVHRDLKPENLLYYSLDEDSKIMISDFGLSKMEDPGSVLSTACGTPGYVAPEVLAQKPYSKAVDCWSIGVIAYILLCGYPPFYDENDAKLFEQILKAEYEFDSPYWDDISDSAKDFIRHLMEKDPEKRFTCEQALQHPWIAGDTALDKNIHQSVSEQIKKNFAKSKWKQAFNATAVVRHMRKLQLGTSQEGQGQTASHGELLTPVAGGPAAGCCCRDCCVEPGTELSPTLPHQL
Chain of Platelet-derived growth factor receptor beta (Homo sapiens) (P09619 whole entry): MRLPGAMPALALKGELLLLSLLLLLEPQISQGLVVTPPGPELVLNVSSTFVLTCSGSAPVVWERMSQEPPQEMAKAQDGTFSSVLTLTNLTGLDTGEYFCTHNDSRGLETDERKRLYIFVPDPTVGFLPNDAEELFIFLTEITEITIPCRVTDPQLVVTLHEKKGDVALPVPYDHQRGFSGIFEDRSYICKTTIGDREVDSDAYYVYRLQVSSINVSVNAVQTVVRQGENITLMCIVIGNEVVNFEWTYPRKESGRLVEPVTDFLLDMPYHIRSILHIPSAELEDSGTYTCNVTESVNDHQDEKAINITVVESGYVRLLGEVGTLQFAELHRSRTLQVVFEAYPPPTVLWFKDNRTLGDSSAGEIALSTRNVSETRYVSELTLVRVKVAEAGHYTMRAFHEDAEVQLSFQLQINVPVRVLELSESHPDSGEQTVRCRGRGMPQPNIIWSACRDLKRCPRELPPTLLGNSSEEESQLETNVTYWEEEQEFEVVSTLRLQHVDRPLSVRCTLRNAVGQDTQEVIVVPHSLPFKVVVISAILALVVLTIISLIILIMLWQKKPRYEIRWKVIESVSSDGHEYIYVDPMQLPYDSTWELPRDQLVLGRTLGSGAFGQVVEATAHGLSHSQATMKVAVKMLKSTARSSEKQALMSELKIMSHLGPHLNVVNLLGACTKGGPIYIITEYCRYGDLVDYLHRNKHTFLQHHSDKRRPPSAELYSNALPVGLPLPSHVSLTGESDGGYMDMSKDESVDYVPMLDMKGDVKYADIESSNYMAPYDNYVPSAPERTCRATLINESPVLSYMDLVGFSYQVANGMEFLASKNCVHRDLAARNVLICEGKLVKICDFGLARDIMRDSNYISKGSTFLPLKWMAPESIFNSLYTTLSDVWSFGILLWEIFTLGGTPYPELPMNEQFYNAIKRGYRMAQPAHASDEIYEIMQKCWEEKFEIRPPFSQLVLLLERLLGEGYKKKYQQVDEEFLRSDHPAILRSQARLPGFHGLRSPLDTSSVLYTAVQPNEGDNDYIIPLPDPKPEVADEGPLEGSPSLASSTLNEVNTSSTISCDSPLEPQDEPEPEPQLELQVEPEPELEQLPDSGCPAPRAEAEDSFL
Chain of Serine/threonine-protein kinase 10 (Homo sapiens) (O94804 whole entry, looked up, canonical isoform): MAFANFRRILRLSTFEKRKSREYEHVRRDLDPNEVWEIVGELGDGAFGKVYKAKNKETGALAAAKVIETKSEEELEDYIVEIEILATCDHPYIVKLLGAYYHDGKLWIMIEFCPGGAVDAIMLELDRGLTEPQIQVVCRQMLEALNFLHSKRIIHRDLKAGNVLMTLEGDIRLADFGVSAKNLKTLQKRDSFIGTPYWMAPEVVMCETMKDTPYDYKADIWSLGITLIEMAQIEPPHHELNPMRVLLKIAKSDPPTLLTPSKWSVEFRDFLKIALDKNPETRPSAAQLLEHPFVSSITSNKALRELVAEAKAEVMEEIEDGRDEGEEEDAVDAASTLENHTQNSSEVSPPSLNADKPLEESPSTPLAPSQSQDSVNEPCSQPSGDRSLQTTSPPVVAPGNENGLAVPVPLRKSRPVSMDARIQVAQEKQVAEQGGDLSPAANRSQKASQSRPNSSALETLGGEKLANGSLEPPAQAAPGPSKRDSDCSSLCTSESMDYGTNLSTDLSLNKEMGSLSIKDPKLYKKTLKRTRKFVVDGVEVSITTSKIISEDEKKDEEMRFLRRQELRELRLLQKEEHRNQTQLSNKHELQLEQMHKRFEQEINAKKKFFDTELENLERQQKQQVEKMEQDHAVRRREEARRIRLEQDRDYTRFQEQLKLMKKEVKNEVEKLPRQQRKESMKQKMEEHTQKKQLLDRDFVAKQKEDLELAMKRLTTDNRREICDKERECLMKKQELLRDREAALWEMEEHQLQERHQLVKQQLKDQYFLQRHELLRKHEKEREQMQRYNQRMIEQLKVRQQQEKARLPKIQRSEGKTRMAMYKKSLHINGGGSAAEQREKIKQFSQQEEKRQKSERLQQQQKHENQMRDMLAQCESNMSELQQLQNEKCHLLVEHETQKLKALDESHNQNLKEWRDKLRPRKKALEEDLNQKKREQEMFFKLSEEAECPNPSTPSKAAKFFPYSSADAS
Chain of Ribosomal protein S6 kinase alpha-1 (Homo sapiens) (Q15418 whole entry): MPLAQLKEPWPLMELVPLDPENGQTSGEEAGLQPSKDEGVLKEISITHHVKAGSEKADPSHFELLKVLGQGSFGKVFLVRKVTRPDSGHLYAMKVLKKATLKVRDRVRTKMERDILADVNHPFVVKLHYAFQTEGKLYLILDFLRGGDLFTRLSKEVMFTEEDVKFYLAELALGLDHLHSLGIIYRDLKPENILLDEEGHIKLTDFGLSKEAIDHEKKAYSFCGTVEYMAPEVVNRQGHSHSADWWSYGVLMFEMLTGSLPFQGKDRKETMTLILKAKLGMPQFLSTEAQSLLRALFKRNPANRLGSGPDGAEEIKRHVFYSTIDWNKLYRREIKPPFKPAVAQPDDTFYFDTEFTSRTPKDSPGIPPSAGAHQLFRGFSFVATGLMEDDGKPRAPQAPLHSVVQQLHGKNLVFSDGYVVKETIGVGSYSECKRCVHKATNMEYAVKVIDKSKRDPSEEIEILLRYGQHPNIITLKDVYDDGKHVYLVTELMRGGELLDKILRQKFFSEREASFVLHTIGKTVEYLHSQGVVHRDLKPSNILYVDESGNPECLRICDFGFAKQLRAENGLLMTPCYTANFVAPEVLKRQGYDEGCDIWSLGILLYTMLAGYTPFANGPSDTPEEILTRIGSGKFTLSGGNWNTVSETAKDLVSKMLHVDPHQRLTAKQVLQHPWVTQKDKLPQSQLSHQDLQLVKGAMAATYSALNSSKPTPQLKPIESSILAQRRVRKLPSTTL
Chain of Tyrosine-protein kinase ABL1 (Homo sapiens) (P00519 whole entry): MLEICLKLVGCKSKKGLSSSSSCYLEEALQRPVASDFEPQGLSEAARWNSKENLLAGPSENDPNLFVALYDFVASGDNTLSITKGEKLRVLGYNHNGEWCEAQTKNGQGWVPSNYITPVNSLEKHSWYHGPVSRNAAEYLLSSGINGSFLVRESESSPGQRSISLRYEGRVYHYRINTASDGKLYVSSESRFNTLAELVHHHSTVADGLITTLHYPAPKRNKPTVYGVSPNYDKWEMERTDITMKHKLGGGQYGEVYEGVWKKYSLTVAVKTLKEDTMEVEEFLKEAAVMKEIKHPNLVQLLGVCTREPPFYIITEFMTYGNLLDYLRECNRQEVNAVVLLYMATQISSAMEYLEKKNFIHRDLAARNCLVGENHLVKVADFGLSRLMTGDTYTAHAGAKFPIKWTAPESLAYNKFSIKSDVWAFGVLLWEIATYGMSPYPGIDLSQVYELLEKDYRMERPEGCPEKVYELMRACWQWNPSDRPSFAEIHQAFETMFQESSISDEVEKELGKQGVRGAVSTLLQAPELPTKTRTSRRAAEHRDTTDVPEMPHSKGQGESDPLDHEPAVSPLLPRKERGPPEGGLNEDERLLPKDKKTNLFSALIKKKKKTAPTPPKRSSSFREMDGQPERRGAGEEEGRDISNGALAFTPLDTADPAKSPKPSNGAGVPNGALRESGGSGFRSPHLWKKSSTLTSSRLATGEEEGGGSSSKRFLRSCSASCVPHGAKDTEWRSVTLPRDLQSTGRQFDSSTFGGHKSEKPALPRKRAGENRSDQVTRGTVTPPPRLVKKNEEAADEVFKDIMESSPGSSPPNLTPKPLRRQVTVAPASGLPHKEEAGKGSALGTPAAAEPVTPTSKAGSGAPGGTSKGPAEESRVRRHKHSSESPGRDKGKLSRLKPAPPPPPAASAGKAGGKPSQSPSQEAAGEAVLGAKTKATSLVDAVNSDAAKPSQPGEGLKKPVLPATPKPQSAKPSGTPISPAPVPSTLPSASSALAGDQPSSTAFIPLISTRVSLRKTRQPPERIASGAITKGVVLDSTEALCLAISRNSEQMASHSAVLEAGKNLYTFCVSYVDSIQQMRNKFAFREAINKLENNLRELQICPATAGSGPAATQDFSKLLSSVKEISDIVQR

Structure (SMILES)	Activity [1] [%]	Activity [2] [%]	Activity [3]	Activity [4]	Activity [5]	Activity [6] [%]	Activity [7]	Activity [8]	Activity [9]	Activity [10] [%]	Activity [11]
CC(C)[C@@H](Nc1ncnc2[nH]ccc12)c1ccc2c(c1)S(=O)(=O)CCC2	114	92	88%	115%	88%	99	99%	93%	94%	104	102%
CC(C)[C@@H](Nc1ncnc2[nH]c(C(=O)N[C@@H]3CCN(C)C3)cc12)c1ccc2c(c1)S(=O)(=O)CCC2	108	94	105%	107%	122%	99	83%	100%	100%	99	100%
Cc1nn(C)cc1-c1cc2c(N[C@H](c3ccc4c(c3)S(=O)(=O)CCC4)C(C)C)ncnc2[nH]1	57	110	107%	96%	115%	106	97%	76%	101%	93	99%
CNC(=O)Cn1cc(-c2cc3c(N[C@@H](c4ccc5c(c4)S(=O)(=O)CCC5)C(C)C)ncnc3[nH]2)cn1	61	94	101%	89%	112%	107	90%	72%	101%	83	97%
CC(C)[C@@H](Nc1ncnc2[nH]c(-c3cnn(C)c3C#N)cc12)c1ccc2c(n1)OCCO2	–	–	100% and 99%	116% and 107%	103% and 121%	–	108% and 93%	52% and 57%	104% and 95%	–	87% and 99%
Cn1ncc(-c2cc3c(N[C@@H](c4ccc5c(n4)OCCO5)C(C)(C)C)ncnc3[nH]2)c1C#N	130	136	132%	110%	115%	–	100%	81%	87%	122	94%
CNCc1cc(-c2cc3c(N[C@@H](c4ccc5c(c4)S(=O)(=O)CCC5)C(C)C)ncnc3[nH]2)co1	40	90	100%	81%	108%	92	89%	51%	87%	92	99%
CC(C)[C@H](Nc1ncnc2[nH]c(-c3cnn(C)c3C#N)cc12)c1ccc2c(n1)OCCO2	79	120	106%	105%	120%	102	92%	57%	104%	45	100%

Now from value to compound:

Activity [1] [%]	Activity [2] [%]	Activity [3]	Activity [4]	Activity [5]	Activity [6] [%]	Activity [7]	Activity [8]	Activity [9]	Activity [10] [%]	Activity [11]	Structure (SMILES)
103	88	106%	87%	121%	97	110%	97%	101%	97	92%	C[C@H](C(=O)O)[C@@H](NC(=O)c1ncnc2[nH]ccc12)c1ccc(Br)cc1
112	102	112%	86%	126%	105	89%	105%	92%	102	97%	CC(C)[C@H](Nc1ncnc2[nH]ccc12)c1ccc2c(c1)S(=O)(=O)CCC2
117	98	91%	88%	98%	100	102%	98%	100%	96	95%	COc1ccc([C@@H](Cc2nnn[nH]2)NC(=O)c2ncnc3[nH]ccc23)cc1
109	102	109%	100%	127%	102	103%	102%	–	102	94%	COc1ccc([C@H](Cc2nnn[nH]2)NC(=O)c2ncnc3[nH]ccc23)cc1
